Publication PMC6944758 (The FEBS journal, 2019)

What was measured:
ALDH7A1 [1] = target: T1, ALDH7A1 (Homo sapiens, UniProt P49419); assay: X-ray crystal structure, co-crystallization; type: binding; conditions: 15 mM NAD+, pH 6.8, 1.85 Å; Rossmann fold cofactor site
T1 sequence (P49419 1-511 isoform P49419-2): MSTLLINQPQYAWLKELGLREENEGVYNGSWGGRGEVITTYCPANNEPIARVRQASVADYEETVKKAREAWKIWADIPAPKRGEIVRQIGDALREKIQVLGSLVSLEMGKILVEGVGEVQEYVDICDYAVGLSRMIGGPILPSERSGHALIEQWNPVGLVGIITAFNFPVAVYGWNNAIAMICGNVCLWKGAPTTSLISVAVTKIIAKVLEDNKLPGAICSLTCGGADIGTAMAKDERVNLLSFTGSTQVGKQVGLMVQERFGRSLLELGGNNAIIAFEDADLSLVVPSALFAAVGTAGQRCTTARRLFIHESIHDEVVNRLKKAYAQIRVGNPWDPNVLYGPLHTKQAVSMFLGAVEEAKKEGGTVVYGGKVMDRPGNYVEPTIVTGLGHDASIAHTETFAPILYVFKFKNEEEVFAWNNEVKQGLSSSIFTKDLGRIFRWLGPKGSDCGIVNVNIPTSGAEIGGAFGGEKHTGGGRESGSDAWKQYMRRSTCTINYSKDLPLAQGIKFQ

ALDH7A1 [2] = target: T1, ALDH7A1; assay: X-ray crystal structure, co-crystallization; type: binding; conditions: 175 mM PA, pH 7.2, 1.88 Å; aldehyde substrate site

| SMILES | X-ray crystal structure, co-crystallization (ALDH7A1 [1]) | X-ray crystal structure, co-crystallization (ALDH7A1 [2]) |
| --- | --- | --- |
| NC(=O)c1ccc[n+]([C@@H]2O[C@H](COP(=O)(O)OP(=O)(O)OC[C@H]3O[C@@H](n4cnc5c(N)ncnc54)[C@H](O)[C@@H]3O)[C@@H](O)[C@H]2O)c1 [NAD^+] | The structures of W175G and W175A complexed with NAD^+ were determined | – |
| O=C(O)[C@@H]1CCCCN1 [PA, L-pipecolic acid] | – | we obtained a structure of W175A complexed with the P6C analog L-pipecolic acid (PA) |
